Reference: the supplement of paper PMC10331698
± gives the standard deviation of the averaged measurements.

Assays:
Experiment in all cases: level (log10 ratio to DMSO vehicle control); higher = higher biomarker level / cell amount than vehicle control
Octafluoroadipic acid = compound: O=C(O)C(F)(F)C(F)(F)C(F)(F)C(F)(F)C(=O)O [Octafluoroadipic acid] (in DMSO)
Protocol: (§1)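 BioMAP Diversity Plus panel of 12 human primary cell co-culture systems (3C, 4H, LPS, SAg, BT, BF4T, BE3C, CASM3C, HDF3CGF, KF3CT, MyoF, Mphg). Compounds were added 1 h before stimulation and left for 24 h (MyoF 48 h; BT 72 h for soluble read-outs or 6 d for IgG). Biomarkers were read by ELISA, cytotoxicity by SRB, PBMC viability and proliferation by Alamar Blue. Each well value was divided by the mean of 8 DMSO control wells on the same plate and log10 transformed; duplicate blinded samples were tested at 4 concentrations.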

Perfluorononanoic acid = compound: O=C(O)C(F)(F)C(F)(F)C(F)(F)C(F)(F)C(F)(F)C(F)(F)C(F)(F)C(F)(F)F [Perfluorononanoic acid] (in DMSO)
Protocol: as §1

[1] = compound: OCC(F)(F)OC(F)(F)C(F)(F)OC(F)(F)C(F)(F)OC(F)(F)CO [1H,1H,11H,11H-Perfluorotetraethylene glycol] (in DMSO)
Protocol: as §1

[2] = compound: O=C(O)C(F)(OC(F)(F)C(F)(F)C(F)(F)F)C(F)(F)F [Ammonium perfluoro-2-methyl-3-oxahexanoate] (in Water)
Protocol: as §1

[3] = compound: OCC(F)(F)C(F)(F)C(F)(F)C(F)F [1H,1H,5H-Perfluoropentanol] (in DMSO)
Protocol: as §1

[4] = compound: CCOC(=O)CC(=O)C(F)(F)C(F)(F)F [Ethyl pentafluoropropionyl acetate] (in DMSO)
Protocol: as §1

[5] = compound: O=S(=O)(O)C(F)(F)C(F)(F)OC(F)(F)C(F)(F)F [Perfluoro(2-ethoxyethane)sulfonic acid] (in DMSO)
Protocol: as §1

Row | Test System | level (log10) (Octafluoroadipic acid; 6700 nM) | level (log10) (Octafluoroadipic acid; 20000 nM) | level (log10) (Octafluoroadipic acid; 60000 nM) | level (log10) (Perfluorononanoic acid; 6700 nM) | level (log10) (Perfluorononanoic acid; 20000 nM) | level (log10) ([1]; 6700 nM) | level (log10) ([1]; 20000 nM) | level (log10) ([1]; 60000 nM) | level (log10) ([2]; 6700 nM) | level (log10) ([2]; 20000 nM) | level (log10) ([2]; 60000 nM) | level (log10) ([3]; 6700 nM) | level (log10) ([3]; 20000 nM) | level (log10) ([3]; 60000 nM) | level (log10) ([4]; 6700 nM) | level (log10) ([4]; 20000 nM) | level (log10) ([4]; 60000 nM) | level (log10) ([5]; 6700 nM) | level (log10) ([5]; 20000 nM) | level (log10) ([5]; 60000 nM)
1 | KF3CT:CXCL10/IP-10 | 0 ± 0.0028 | -0.001 ± 0.0028 | -0.001 ± 0.014 | -0.016 ± 0.018 | -0.0085 ± 0.021 | -0.0035 ± 0.018 | -0.0065 ± 0.0064 | -0.027 ± 0.016 | -0.017 ± 0.0085 | 0.004 ± 0.0057 | 0.005 ± 0.0042 | -0.0125 ± 0.033 | 0.0025 ± 0.00071 | 0.0365 ± 0.00071 | -0.002 ± 0.013 | -0.009 ± 0.0057 | -0.009 ± 0.0071 | 0.0025 ± 0.013 | -0.0075 ± 0.011 | -0.009
2 | HDF3CGF:CXCL11/I-TAC | -0.008 ± 0.018 | -0.005 ± 0.0085 | -0.002 ± 0.0042 | 0.018 ± 0.013 | 0.0285 ± 0.018 | -0.0395 ± 0.053 | -0.139 ± 0.077 | -0.319 ± 0.13 | 0.002 ± 0.0057 | -0.0045 ± 0.019 | 0.002 ± 0.0099 | -0.0425 ± 0.028 | -0.023 ± 0.093 | 0.004 ± 0.051 | -0.0175 ± 0.029 | -0.026 ± 0.037 | -0.0425 ± 0.021 | 0.0165 ± 0.022 | 0.0055 ± 0.021 | -0.0365 ± 0.063
3 | KF3CT:CXCL9/MIG | 0.003 ± 0.014 | 0.0075 ± 0.016 | 0.0155 ± 0.0021 | -0.006 ± 0.027 | -0.007 ± 0.0042 | -0.006 ± 0.031 | -0.001 ± 0.013 | -0.013 ± 0.018 | -0.007 ± 0.011 | 0.0025 ± 0.00071 | 0.0005 ± 0.0021 | -0.009 ± 0.0085 | -0.006 ± 0.017 | 0.008 ± 0.023 | 0.002 ± 0.0028 | 0.0015 ± 0.0078 | -0.0025 ± 0.0064 | 0.0105 ± 0.0064 | -0.0015 ± 0.012 | 0.0155 ± 0.0021
4 | KF3CT:CCL2/MCP-1 | -0.0165 ± 0.043 | -0.0265 ± 0.00071 | 0.0285 ± 0.026 | -0.0975 ± 0.012 | -0.157 ± 0.03 | -0.025 ± 0.024 | -0.044 ± 0.024 | -0.005 ± 0.0042 | 0.086 ± 0.0057 | 0.088 ± 0.023 | 0.0775 ± 0.018 | 0.0055 ± 0.026 | -0.0495 ± 0.087 | 0.007 ± 0.13 | -0.0355 ± 0.0064 | -0.045 ± 0.035 | 0.001 ± 0.071 | -0.0025 ± 0.013 | -0.002 ± 0.016 | 0.0115 ± 0.032
5 | MyoF:TIMP-1 | -0.0155 ± 0.026 | -0.02 ± 0.025 | -0.0485 ± 0.019 | 0.0025 ± 0.03 | -0.034 ± 0.033 | -0.0035 ± 0.012 | 0.017 | 0.0285 ± 0.005 | -0.0395 ± 0.0092 | -0.0635 ± 0.015 | -0.068 ± 0.0028 | 0.0015 ± 0.026 | 0.004 ± 0.054 | 0.039 ± 0.027 | -0.005 ± 0.023 | -0.012 ± 0.023 | 0.0125 ± 0.022 | 0.003 ± 0.0014 | 0.036 ± 0.028 | 0.0775 ± 0.025
6 | HDF3CGF:CXCL10/IP-10 | 0 ± 0.0057 | -0.005 ± 0.0028 | 0.001 ± 0.0085 | -0.019 ± 0.024 | -0.061 ± 0.016 | -0.0435 ± 0.04 | -0.155 ± 0.013 | -0.418 ± 0.059 | 0.002 ± 0.013 | -0.0085 ± 0.00071 | -0.0025 ± 0.012 | -0.0255 ± 0.019 | 0.0095 ± 0.0021 | 0.005 ± 0.018 | -0.0125 ± 0.015 | -0.0105 ± 0.022 | -0.046 ± 0.0085 | 0.0105 ± 0.033 | -0.0145 ± 0.05 | -0.0105 ± 0.056
7 | CASM3C:LDLR | -0.0215 ± 0.023 | -0.008 ± 0.018 | 0.029 ± 0.047 | -0.05 ± 0.02 | -0.0415 ± 0.011 | -0.019 ± 0.0028 | -0.025 ± 0.0042 | 0.0225 ± 0.022 | -0.061 ± 0.057 | -0.032 ± 0.04 | -0.0545 ± 0.021 | -0.0555 ± 0.086 | -0.0425 ± 0.044 | -0.0125 ± 0.00071 | -0.0125 ± 0.019 | -0.002 ± 0.0085 | 0.0035 ± 0.013 | -0.006 ± 0.0014 | -0.0085 ± 0.00071 | 0.0005 ± 0.023
8 | lMphg:CCL2/MCP-1 | 0.0135 ± 0.013 | -0.008 ± 0.016 | 0.028 ± 0.059 | 0.0105 ± 0.0064 | 0.0325 ± 0.03 | -0.0285 ± 0.032 | -0.079 ± 0.034 | -0.073 ± 0.052 | 0.0165 ± 0.005 | 0.0125 ± 0.012 | 0.038 ± 0.027 | -0.0185 ± 0.00071 | 0.008 ± 0.02 | 0.0075 ± 0.012 | -0.023 ± 0.045 | -0.0135 ± 0.021 | 0.0125 ± 0.037 | -0.01 ± 0.03 | 0.005 ± 0.028 | -0.002 ± 0.0042
9 | CASM3C:HLA-DR | -0.0035 ± 0.019 | -0.0095 ± 0.032 | -0.0025 ± 0.0078 | -0.0105 ± 0.066 | -0.02 ± 0.0028 | -0.002 ± 0.0099 | -0.0115 ± 0.0021 | -0.005 ± 0.0085 | 0.0195 ± 0.054 | 0.01 ± 0.059 | 0.004 ± 0.0071 | 0.016 ± 0.0028 | -0.014 ± 0.064 | 0.035 ± 0.025 | -0.0125 ± 0.0064 | -0.0185 ± 0.015 | -0.015 ± 0.014 | 0.011 ± 0.0099 | 0 ± 0.02 | -0.005 ± 0.016
10 | CASM3C:SRB | -0.006 ± 0.0057 | -0.0025 ± 0.005 | -0.006 ± 0.0057 | -0.0005 ± 0.0064 | 0.002 | -0.0025 ± 0.0064 | -0.008 ± 0.0057 | -0.0275 ± 0.012 | -0.007 ± 0.0057 | -0.008 ± 0.0014 | -0.0105 ± 0.0064 | 0.0025 ± 0.0035 | 0.0015 ± 0.0021 | 0.0045 ± 0.00071 | 0.0035 ± 0.0021 | 0.0015 ± 0.0035 | 0.002 ± 0.011 | -0.002 ± 0.0028 | -0.003 ± 0.0028 | 0.001 ± 0.0071
11 | MyoF:CD106/VCAM-1 | -0.0235 ± 0.005 | -0.0255 ± 0.022 | -0.0085 ± 0.016 | -0.0475 ± 0.025 | -0.024 ± 0.016 | 0.011 ± 0.0057 | -0.012 ± 0.011 | -0.0985 ± 0.05 | 0.0105 ± 0.033 | 0.012 ± 0.011 | -0.011 ± 0.0099 | -0.02 ± 0.0099 | -0.0005 ± 0.035 | 0.0165 ± 0.015 | -0.0125 ± 0.012 | -0.012 ± 0.023 | -0.0105 ± 0.021 | 0.006 ± 0.013 | -0.0095 ± 0.015 | 0.013 ± 0.013
12 | CASM3C:CD87/uPAR | -0.012 ± 0.0057 | -0.014 ± 0.0085 | -0.0015 ± 0.0064 | -0.02 ± 0.0071 | 0.023 | -0.019 ± 0.024 | -0.026 ± 0.034 | -0.011 ± 0.018 | -0.031 ± 0.076 | 0.0075 ± 0.011 | 0.014 ± 0.027 | 0.0065 ± 0.021 | 0.025 ± 0.017 | 0.005 ± 0.021 | 0.0015 ± 0.028 | -0.013 ± 0.0057 | -0.01 ± 0.017 | 0.0025 ± 0.032 | 0.01 ± 0.024 | -0.0165 ± 0.046
13 | CASM3C:CXCL9/MIG | -0.0055 ± 0.0078 | -0.01 ± 0.0071 | 0.001 ± 0.021 | 0.014 ± 0.028 | 0.005 ± 0.057 | 0.0135 ± 0.028 | 0.0135 ± 0.013 | 0.0415 ± 0.00071 | 0.039 ± 0.038 | 0.05 ± 0.0071 | 0.0595 ± 0.015 | 0.021 ± 0.03 | 0.0095 ± 0.037 | 0.0005 ± 0.093 | -0.018 ± 0.03 | -0.0145 ± 0.0064 | -0.0035 ± 0.0092 | -0.0205 ± 0.0064 | -0.0105 ± 0.0035 | 0.0145 ± 0.057
14 | KF3CT:CD54/ICAM-1 | -0.0045 ± 0.0035 | -0.0105 ± 0.0078 | -0.009 ± 0.018 | -0.0235 ± 0.013 | -0.0455 ± 0.037 | -0.016 ± 0.0085 | -0.008 ± 0.02 | -0.006 ± 0.035 | 0.022 ± 0.0099 | 0.029 ± 0.0071 | 0.017 ± 0.0057 | -0.002 ± 0.0071 | -0.003 ± 0.023 | 0.004 | -0.003 ± 0.024 | 0.006 ± 0.014 | 0.0075 ± 0.03 | -0.002 ± 0.0099 | -0.0275 ± 0.0064 | -0.0165 ± 0.00071
